Assay results published in US20070043000A1, “Immunosuppresive effects of pteridine derivatives” (priority 2003, published 2007).
pIC50: −log10 of the molar value. Where two headings read alike, the source gives them in different places.

Key:
Type in all cases: cell-based, human
[1] = system: peripheral blood mononuclear cells (PBMC); assay: Mixed lymphocyte reaction (MLR) test
Experimental: All reagents were dissolved in 0.5 ml dimethylsulfoxide (hereinafter referred as DMSO) and further diluted in culture medium before use for the following in vitro experiments. The commercially available culture medium consisted of RPMI-1640+10% foetal calf serum (FCS). Peripheral blood mononuclear cells (hereinafter referred as PBMC) were isolated from heparinized peripheral blood by density gradient centrifugation over Lymphoprep (Nycomed, Maorstua, Norway). Allogeneic PBMC or […]-Barr Virus-transformed human B cells [commercially available under the trade name RPMI1788 (ATCC name CCL156)] which strongly express B7-1 and B7-2 antigens were used as stimulator cells after irradiation with 30 Gy. MLR was performed in triplicate wells. After 5 days incubation at 37° C., 1 μCi [^3H]-thymidine was added to each cup. After a further 16 hours incubation, cells were harvested and counted in a β-counter. Inhibition of proliferation by a compound (drug) described in some of the previous examples was counted using the formula: [formula] wherein cpm is the thymidine count per minute. TNF-Alpha and IL-1 Beta Assays

[2] = system: TNF-alpha production by PBMC; assay: TNF-alpha assay, LPS-stimulated PBMC, sandwich ELISA
Experimental: (§1) All reagents were dissolved in 0.5 ml dimethylsulfoxide (hereinafter referred as DMSO) and further diluted in culture medium before use for the following in vitro experiments. The commercially available culture medium consisted of RPMI-1640+10% foetal calf serum (FCS). Peripheral blood mononuclear cells (herein referred as PBMC), in response to stimulation by lipopolysaccharide (LPS), a gram-negative bacterial endotoxin, produce various […], in particular human TNF-alpha and II-1 beta. The inhibition of the activation of PBMC can be measured by the level of suppression of the production of TNF-alpha or IL-1 beta by PBMC in response to stimulation by LPS. Such inhibition measurement was performed as follows: PBMC were isolated from heparinized peripheral blood (Buffy coat) by density gradient centrifugation. LPS is then added to the PMBC suspension in complete medium (10^6 cells/ml) at a final concentration of 1 μg/ml. The compound to be tested was added at different dilution levels, and the cells were incubated at 37° C. for 72 hours. The supernatants were collected, and TNF-alpha or II-1 beta concentrations were measured with respectively an anti-TNF antibody or an anti-IL-1 beta antibody in a sandwich ELISA. The percent inhibition was calculated as: % inhibition=(pg/ml in sample−pg/ml min.)/(pg/ml max.−pg/ml min.)−1 wherein: min.: pg/ml in culture medium without test compound, and • max.: pg/ml in culture medium+LPS without test compound.

[3] = system: IL-1 beta production by PBMC; assay: IL-1 beta assay, LPS-stimulated PBMC, sandwich ELISA
Experimental: as §1

[4] = Table 7, same conditions as example 26
[5] = Table 7, same conditions as example 26, read-out: TNFα IC50
[6] = Table 7, same conditions as example 26, read-out: IL1β IC50
[7] = Table 2, [3H]-thymidine incorporation after 5 days incubation
[8] = Table 2, LPS 1 μg/ml, 72 hours, read-out: TNF IC50
[9] = Table 2, LPS 1 μg/ml, 72 hours, read-out: IL-1 IC50

COc1ccc(-c2nc3c(=O)n(C)c(=O)n(C)c3nc2Cl)cc1 [Example 76, 7-chloro-1,3-dimethyl-6-(4-methoxyphenyl)-lumazine]
pIC50 [1, 4]: 5.35 | pIC50 [2, 5]: 6.22 | pIC50 [3, 6]: 6.22

COc1ccc(-c2nc3c(=O)[nH]c(=O)n(C)c3nc2Cl)cc1 [Example 15, 1-methyl-6-(4′-methoxyphenyl)-7-chloro-lumazine]
pIC50 [1, 7]: 5.52 | pIC50 [2, 8]: 6.10 | pIC50 [3, 9]: 6.40

Cc1ccc(-c2nc3c(=O)[nH]c(=O)n(C)c3nc2Cl)cc1 [Example 16, 1-methyl-6-(4′-methylphenyl)-7-chloro-lumazine]
pIC50 [1, 7]: 5.44 | pIC50 [2, 8]: 5.96

Cn1c(=O)n(CCCC(=O)O)c(=O)c2nc(-c3ccccc3)c(Cl)nc21 [Example 85, 7-chloro-3-(n-butyric acid)-1-methyl-6-phenyl-lumazine]
pIC50 [1, 4]: 5.30 | pIC50 [2, 5]: 5.21 | pIC50 [3, 6]: 5.41

CC(=O)Nn1c(=O)c2nc(-c3ccccc3)c(Cl)nc2n(C)c1=O [Example 69, 3-acetamido-7-chloro-1-methyl-6-phenyl-lumazine]
pIC50 [1, 4]: 5.35 | pIC50 [2, 5]: 5.24 | pIC50 [3, 6]: 5.47

Cn1c(=O)n(CCN2CCCCC2)c(=O)c2nc(-c3ccccc3)c(Cl)nc21 [Example 77, 7-chloro-1-methyl-6-phenyl-3-(2-piperidinoethyl)-lumazine]
pIC50 [1, 4]: 5.47 | pIC50 [2, 5]: 5.43 | pIC50 [3, 6]: 6.15

Cn1c(=O)[nH]c2nc(Cl)c(-c3ccccc3)nc2c1=O [Example 6, 3-methyl-6-phenyl-7-chloro-lumazine]
pIC50 [2, 8]: 5.52 | pIC50 [3, 9]: 6.40

Cn1c(=O)n(CCO)c(=O)c2nc(-c3ccccc3)c(Cl)nc21 [Example 57, 7-chloro-3-(2-hydroxyethyl)-1-methyl-6-phenyl-lumazine]
pIC50 [1, 4]: 5.30 | pIC50 [2, 5]: 6.40 | pIC50 [3, 6]: 6.15

Cn1c(=O)[nH]c(=O)c2nc(-c3ccc(Cl)cc3)c(Cl)nc21 [Example 54, 7-chloro-6-(4-chlorophenyl)-1-methyl-lumazine]
pIC50 [2, 5]: 5.42 | pIC50 [3, 6]: 6.30

COc1ccc(-c2nc3c(=O)n(CCO)c(=O)n(C)c3nc2Cl)cc1OC [Example 64, 7-chloro-6-(3,4-dimethoxyphenyl)-3-(2-hydroxyethyl)-1-methyl-lumazine]
pIC50 [1, 4]: 5.24 | pIC50 [2, 5]: 6.15 | pIC50 [3, 6]: 6.30

O=c1[nH]c(=O)n(Cc2ccccc2)c2nc(Cl)c(-c3ccccc3)nc12 [Example 53, 7-chloro-1-benzyl-6-phenyl-lumazine]
pIC50 [1, 4]: 5.36 | pIC50 [2, 5]: 5.35 | pIC50 [3, 6]: 5.92

Cn1c(=O)n(CCc2ccccc2)c(=O)c2nc(-c3ccccc3)c(Cl)nc21 [Example 58, 7-chloro-3-(2-phenylethyl)-1-methyl-6-phenyl-lumazine]
pIC50 [1, 4]: 5.25 | pIC50 [2, 5]: 5.26 | pIC50 [3, 6]: 6.30

CCCCOC(=O)NCCn1c(=O)c2nc(-c3ccccc3)c(Cl)nc2n(C)c1=O [Example 75, 3-(2-butyloxycarbonyl-aminoethyl)-7-chloro-1-methyl-6-phenyl-lumazine]
pIC50 [1, 4]: 5.29 | pIC50 [2, 5]: 5.46 | pIC50 [3, 6]: 6.15

CCOC(=O)CCCn1c(=O)c2nc(-c3ccc(OC)c(OC)c3)c(Cl)nc2n(C)c1=O [Example 63, 7-chloro-6-(3,4-dimethoxyphenyl)-3-(ethyl butyrate)-1-methyl-lumazine]
pIC50 [1, 4]: 5.24 | pIC50 [2, 5]: 6.22 | pIC50 [3, 6]: 6.05

Cn1c(=O)n(CCN2CCOCC2)c(=O)c2nc(-c3ccccc3)c(Br)nc21 [Example 81, 7-bromo-1-methyl-3-(2-morpholinoethyl)-6-phenyl-lumazine]
pIC50 [1, 4]: 5.33 | pIC50 [2, 5]: 5.77 | pIC50 [3, 6]: 5.27

CCOC(=O)CCCCn1c(=O)c2nc(-c3ccccc3)c(Cl)nc2n(C)c1=O [Example 72, 7-chloro-3-(ethyl pentanoate)-1-methyl-6-phenyl-lumazine]
pIC50 [1, 4]: 5.46 | pIC50 [2, 5]: 5.47 | pIC50 [3, 6]: 6.22

COc1ccc(-c2nc3c(=O)n(CCCC(=O)OC(C)C)c(=O)n(C)c3nc2Br)cc1OC [Example 88, 7-bromo-6-(3,4-dimethoxyphenyl)-3-(isopropyl butyrate)-1-methyl-lumazine]
pIC50 [1, 4]: 5.33 | pIC50 [2, 5]: 6.15 | pIC50 [3, 6]: 5.12

Cn1c(=O)n(CCN2CCCC2)c(=O)c2nc(-c3ccccc3)c(Cl)nc21 [Example 78, 7-chloro-1-methyl-6-phenyl-3-(2-pyrrolidinoethyl)-lumazine]
pIC50 [1, 4]: 5.36 | pIC50 [2, 5]: 5.13 | pIC50 [3, 6]: 6.10

Cn1c(=O)[nH]c(=O)c2nc(-c3ccccc3)c(Cl)nc21 [Example 14, 1-methyl-6-phenyl-7-chloro-lumazine]
pIC50 [1, 7]: 5.39 | pIC50 [3, 9]: 6.46

CCOC(=O)CCCn1c(=O)c2nc(-c3ccccc3)c(Cl)nc2n(CC)c1=O [Example 68, 7-chloro-1-ethyl-3-(ethyl butyrate)-6-phenyl-lumazine]
pIC50 [1, 4]: 5.17 | pIC50 [2, 5]: 5.51 | pIC50 [3, 6]: 6.22

Cn1c(=O)n(CCCC#N)c(=O)c2nc(-c3ccccc3)c(Cl)nc21 [Example 67, 3-butyronitrile-7-chloro-1-methyl-6-phenyl-lumazine]
pIC50 [1, 4]: 5.32 | pIC50 [2, 5]: 6.15 | pIC50 [3, 6]: 6.22

Cn1c(=O)n(CCCC(N)=O)c(=O)c2nc(-c3ccccc3)c(Cl)nc21 [Example 90, 3-(4-butyramido)-7-chloro-1-methyl6-phenyl-lumazine]
pIC50 [1, 4]: 5.41 | pIC50 [2, 5]: 5.31 | pIC50 [3, 6]: 5.80

COc1ccc(-c2nc3c(=O)[nH]c(=O)n(C)c3nc2Cl)cc1OC [Example 19, 1-methyl-6-(3′,4′-dimethoxyphenyl)-7-chloro-lumazine]
pIC50 [1, 7]: 5.29 | pIC50 [2, 8]: 5.96

COc1ccc(-c2nc3c(=O)[nH]c(=O)n(C)c3nc2Br)cc1 [Example 51, 7-bromo-6-(4-methoxyphenyl)-1-methyl-lumazine]
pIC50 [1, 4]: 5.44 | pIC50 [2, 5]: 5.34 | pIC50 [3, 6]: 5.24

Cn1c(=O)c2nc(-c3ccc(O)cc3)c(Br)nc2n(C)c1=O [Example 84, 7-bromo-1,3-dimethyl-6-(4-hydroxyphenyl)-lumazine]
pIC50 [1, 4]: 5.39 | pIC50 [2, 5]: 6.05 | pIC50 [3, 6]: 5.41

COc1ccc(-c2nc3c(=O)[nH]c(=O)n(C)c3nc2Br)cc1OC [Example 50, 7-bromo-6-(3,4-dimethoxyphenyl)-1-methyl-lumazine]
pIC50 [1, 4]: 5.40 | pIC50 [2, 5]: 6.00 | pIC50 [3, 6]: 6.22

Cn1c(=O)[nH]c(=O)c2nc(-c3ccc(C#N)cc3)c(Cl)nc21 [Example 48, 7-chloro6-(4-cyanophenyl)-1-methyl-lumazine]
pIC50 [1, 4]: 5.37 | pIC50 [2, 5]: 5.60 | pIC50 [3, 6]: 6.40

COc1ccc(-c2nc3c(=O)n(CCN4CCOCC4)c(=O)n(C)c3nc2Br)cc1OC [Example 82, 7-bromo-1-methyl-3-(2-morpholinoethyl)-6-(3,4dimethoxyphenyl)-lumazine]
pIC50 [1, 4]: 5.34 | pIC50 [2, 5]: 5.00 | pIC50 [3, 6]: 5.24

COc1ccc(-c2nc3c(=O)[nH]c(=O)n(C)c3nc2Cl)cc1OC [Example 41, 7-chloro-6-(3,4-dimethoxyphenyl)-1-methyl-lumazine]
pIC50 [1, 4]: 5.29 | pIC50 [2, 5]: 5.77 | pIC50 [3, 6]: 6.15

Cn1c(=O)[nH]c(=O)c2nc(-c3ccc(Cl)cc3)c(Cl)nc21 [Example 20, 1-methyl-6-(4′-chlorophenyl)-7-chloro-lumazine]
pIC50 [2, 8]: 5.42 | pIC50 [3, 9]: 6.40

CCOC(=O)Cn1c(=O)c2nc(-c3ccccc3)c(Cl)nc2n(C)c1=O [Example 71, 7-chloro-3-(ethyl acetate)-1-methyl-6-phenyl-lumazine]
pIC50 [1, 4]: 5.55 | pIC50 [2, 5]: 5.47 | pIC50 [3, 6]: 6.22

CCOC(=O)CCCn1c(=O)c2nc(-c3ccccc3)c(Cl)nc2n(-c2ccccc2)c1=O [Example 65, 7-chloro-1,6-diphenyl-3-(ethyl butyrate)-lumazine]
pIC50 [1, 4]: 5.42 | pIC50 [2, 5]: 6.10 | pIC50 [3, 6]: 6.30

Cc1ccc(-c2nc3c(=O)[nH]c(=O)n(C)c3nc2Cl)cc1 [Example 52, 7-chloro-1-methyl-6-(4-methylphenyl)-lumazine]
pIC50 [1, 4]: 5.46 | pIC50 [2, 5]: 5.96

O=c1[nH]c(=O)n(Cc2ccccc2)c2nc(Cl)c(-c3ccccc3)nc12 [Example 18, 1-benzyl-6-phenyl-7-chloro-lumazine]
pIC50 [1, 7]: 5.36 | pIC50 [2, 8]: 5.35
